From patent US5164400A, “Pyrroloquinoline compounds” (Fujisawa Pharmaceutical Co., Ltd., priority 1989, dated 1992)

Assays:
[1] = target: T1, rat liver 3-Hydroxy-3-methylglutary-Coenzyme A Reductase (Rattus norvegicus, UniProt P51639); experiment: Assay for rat liver 3-Hydroxy-3-methylglutary-Coenzyme A Reductase Activity (in vitro); assay type: biochemical; conditions: enzyme solubilized from rat liver microsomes, pH 7.4, 37° C., 20 minutes
T1 construct: from tissue; host or cells: rat liver microsomes (solubilized, purified through second ammonium sulfate precipitation)
T1 sequence (P51639 1-887): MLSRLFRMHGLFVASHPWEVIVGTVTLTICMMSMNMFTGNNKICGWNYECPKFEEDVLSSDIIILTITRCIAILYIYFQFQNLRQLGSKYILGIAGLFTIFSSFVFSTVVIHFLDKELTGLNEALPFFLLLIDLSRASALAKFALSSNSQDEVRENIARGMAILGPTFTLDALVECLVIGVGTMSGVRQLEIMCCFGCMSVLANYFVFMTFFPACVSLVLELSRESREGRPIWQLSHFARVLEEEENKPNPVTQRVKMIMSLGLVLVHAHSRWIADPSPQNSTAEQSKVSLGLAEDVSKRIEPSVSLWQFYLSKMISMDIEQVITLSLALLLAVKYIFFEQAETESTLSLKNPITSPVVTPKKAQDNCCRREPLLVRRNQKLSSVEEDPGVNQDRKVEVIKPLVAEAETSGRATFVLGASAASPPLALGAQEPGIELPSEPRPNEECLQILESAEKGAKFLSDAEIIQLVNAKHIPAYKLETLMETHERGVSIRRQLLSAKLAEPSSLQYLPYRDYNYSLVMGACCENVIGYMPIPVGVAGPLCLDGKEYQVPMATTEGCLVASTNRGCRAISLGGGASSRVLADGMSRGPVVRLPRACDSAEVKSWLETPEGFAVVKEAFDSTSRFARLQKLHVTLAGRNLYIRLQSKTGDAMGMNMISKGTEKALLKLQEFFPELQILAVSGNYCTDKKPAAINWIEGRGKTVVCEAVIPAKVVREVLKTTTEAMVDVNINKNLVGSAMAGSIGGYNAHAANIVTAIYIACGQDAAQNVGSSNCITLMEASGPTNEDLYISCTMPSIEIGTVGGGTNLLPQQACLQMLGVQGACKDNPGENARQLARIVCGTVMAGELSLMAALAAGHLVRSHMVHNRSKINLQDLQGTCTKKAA
Protocol: (1) Test 1 [Assay for rat liver 3-Hydroxy-3-methylglutary-Coenzyme A Reductase Activity (in vitro)]
Five μl or an enzyme solution, solubilized from rat liver microsomes and purified through the second ammonium sulfate precipitation step, is added to 35 μl of a reaction mixture containing 1.11 kBg(=0.03 μCi) or 3-hydroxy-3-metyhl [3-^14 C] glutary coenzyme A, 100 mM potassium phosphate buffer, pH 7.4, 10 mM ethylenediaminetetraacetic acid (EDTA), 10 mM dithiothreitol with or without the graded concentrations of the test compound. The reaction is started by addition of 10 μl of 25 mM β-nicotinamide adenine dinucleotide phosphate, reduced form (NADPH). The mixture is incubated at 37° C. for 20 minutes. The reaction is terminated by addition of 10 μl of 2N hydrochloric acid. After an additional incubation for 15 minutes at 37° C., a 20 μl aliquot of the mixture is applied to a Silica Gel 60 F-254 plate (made by Merck & Co., Inc.). The chromatograms are developed in benzene/acetone (1:1). Sections of the thin layer plates where the mevalonolactone is located are scraped and the radioactivity are counted.

Sterol Synthesis = experiment: Assay for Sterol Synthesis in Rats (in vivo); design: species or system Male SD rats; conditions: dose 10.0 mg/kg, oral intubation, [1-^14 C] acetate i.p. 1 hour after compound, blood after 50 minutes
Protocol: (2) Test 2 [Assay for Sterol Synthesis in Rats (in vivo)]
Male SD rats are administered the test compound by oral intubation. One hour after compound administration, the rats are injected intraperitoneally with sodium [1-^14 C] acetate at 3.7 MBq/kg (=100 μCi/kg). After 50 minutes, 2.5 ml of blood samples are taken by cardiac puncture under short-term ether anesthesia. The plasma, obtained by centrifugation, is hydrolyzed and nonsaponifiable lipids are extracted with the petroleum ether. Sterols are isolated from these extracts as digitonide, dissolved in 1ml of methanol and the radioactivity is counted.

Row | Compound | IC50 [1] [nM] | Inhibition (%) (Sterol Synthesis)
1 | COc1cc(F)ccc1-c1c(/C=C/[C@@H](O)C[C@@H](O)CC(=O)O)n2c3c(cccc13)CCC2(C)C (relative stereo) [Compound A] | 53.5 | 95.7
2 | COc1cc(F)ccc1-c1c(/C=C/C(O)CC(O)CC(=O)O)n2c3c(cccc13)CCC2(C)C (single isomer, unassigned) [Compound B, sodium (+)-erythro-(E)-7-[5,6-dihydro-4,4-dimethyl-1-(4-fluoro-2-methoxyphenyl)-4H-pyrrolo[3,2,1-ij]quinolin-2-yl]-3,5-dihydroxyhept-6-enoate] | 25.7 | –
